Reference: patent publication US20080139388A1, “Synergistic Insecticide Mixtures” (priority 2004, published 2008)

Tests used:
Myzus persicae = Myzus persicae test (cabbage leaf dip); assay type: in vivo
Excerpt: (§1) Formula for the calculation of the kill rate of a combination of two active compounds
(§2) The expected activity for a given combination of two active compounds can be calculated (cf. COLBY, S. R.; “Calculating Synergistic and Antagonistic Responses of Herbicide Combinations”, Weeds 15, pages 20-22, 1967):
(§3) if • X=the kill rate, expressed in % of the untreated control, when employing active compound A at an application rate of m ppm, • Y=the kill rate, expressed in % of the untreated control, when employing active compound B at an application rate of n ppm, • E=the kill rate, expressed in % of the untreated control, when employing active compounds A and B at application rates of m and n ppm, then
(§4) If the actual insecticidal kill rate is higher than the calculated one, the kill rates of the combination are superadditive, i.e. a synergistic effect is present. In this case, the kill rate that is actually observed has to be higher than the value, calculated using the formula above, for the expected kill rate (E).
Solvent: 7 parts by weight of dimethylformamide Emulsifier: 2 parts by weight of alkylaryl polyglycol ether
To produce a suitable preparation of active compound, 1 part by weight of active compound is mixed with the stated amounts of solvent and emulsifier, and the concentrate is diluted with emulsifier-containing water to the desired concentration.
Cabbage leaves (Brassica oleracea) which are heavily infested by the green peach aphid (Myzus persicae) are treated by being dipped into the preparation of active compound of the desired concentration.
After the desired period of time, the kill in % is determined. 100% means that all aphids have been killed; 0% means that none of the aphids have been killed. The determined kill rates are entered into Colby's formula.

[1] = system: Plutella xylostella (normally sensitive strain); assay: Plutella xylostella test, normally sensitive strain (cabbage leaf dip); assay type: in vivo; conditions: 20 ppm
Excerpt: as §1, §2, §3, §4
To produce a suitable preparation of active compound, 1 part by weight of active compound is mixed with the stated amounts of solvent and emulsifier, and the concentrate is diluted with emulsifier-containing water to the desired concentration. […]
After the desired period of time, the kill in % is determined. […] The determined kill rates are entered into Colby's formula (see sheet 1).

**Q.** With C/C(=N\C#N)N(C)Cc1ccc(Cl)nc1 [acetamiprid] as the molecule, how does the “Kill in % after 6 days” value (Myzus persicae; 0.16 ppm) read?
**A.** 30%

**Q.** For CNC(=O)Oc1cc(C)c(SC)c(C)c1 [methiocarb, 3,5-dimethyl-4-(methylthio)phenyl methylcarbamate], which “Kill in % after 3 days” value [1] is on record?
**A.** 0%

**Q.** And the “Kill in % after 1 day” value (Myzus persicae; 20 ppm, after 1 day (Table A2))?
**A.** 5%

**Q.** And the “Kill in % after 1 day” value (Myzus persicae; 20 ppm, after 1 day (Table A3))?
**A.** 5%

**Q.** What about the “Kill in % after 6 days” value (Myzus persicae; 100 ppm) of the same molecule?
**A.** 50%

**Q.** CN/C(=N\[N+](=O)[O-])NCc1cnc(Cl)s1 [clothianidin] was tested. Which “Kill in % after 1 day” value (Myzus persicae; 0.16 ppm, after 1 day (Table A2)) did it give?
**A.** 0%

**Q.** What does the source list for N#C/N=C1\SCCN1Cc1ccc(Cl)nc1 [thiacloprid]?
**A.** Kill in % after 3 days [1]: 0%; Kill in % after 1 day (Myzus persicae; 0.8 ppm, after 1 day (Table A3)): 20%
